Test results from patent publication US7803769B2 (priority 2006, dated 2010).
“Also recorded” adds a separate entry of the source.

B1: L2-6H-L3-CH2-L10-OsK1 (1-38) (protein)
chain: MGGHHHHHHGGGPSVFLFPPKPKDTLMISRTPEVTCVVVDVSHEDPEVKFNWYVDGVEVHNAKTKPREEQYNSTYRVVSVLTVLHQDWLNGKEYKCKVSNKALPAPIEKTISGGGGSGGGGSGVIINVKCKISRQCLEPCKKAGMRFGKCMNGKCHCTPK

How the values were obtained:
[1] = test system: adoptive transfer EAE model of multiple sclerosis; details: rat, in vivo, sc
[2] = test system: IFNγ production from PMA and αCD3 antibody stimulated human PBMCs; format: cell-based
[3] = test system: IL-2 production from αCD3 and αCD28 antibody stimulated human PBMCs; format: cell-based
[4] = test system: thapsigargin-induced IFN-g production in human whole blood; format: cell-based
[5] = test system: IFNγ production from αCD3 and αCD28 antibody stimulated human PBMCs; format: cell-based
[6] = test system: CD40L on CD4+ T cells in human whole blood; format: cell-based
[7] = test system: IL-2 production from PMA and αCD3 antibody stimulated human PBMCs; format: cell-based
[8] = rat, in vivo, iv
[9] = test system: IL-2R on CD4+ T cells in human whole blood; format: cell-based
human Kv1.3 channel = human Kv1.3 channel (Homo sapiens, UniProt P22001); format: cell-based
human Kv1.1 = biological target: T1, human Kv1.1 (Homo sapiens, UniProt Q09470); format: cell-based
T1 construct: expressed in transfected cells; host or cells: HEK293

[10] = test system: thapsigargin-induced IL-2 production in human whole blood
[11] = biological target: fixed HEK 293 cells stably transfected with human Kv1.3 (Homo sapiens, UniProt P22001); assay: Whole cell immunoassay (ELISA) on fixed HEK 293 cells overexpressing Kv1.3; format: binding
Description: Our peptibody reagent can be a useful and convenient tool for monitoring Kv1.3 channel expression in patients and have utility in diagnostic applications. The procedure shown in FIG. 34A and FIG. 34B follows.
FIG. 34A. A whole cell immunoassay was performed to show binding of intact Fc-L10-ShK[1-35] to Kv1.3 transfected HEK 293 cells (BioFocus plc, Cambridge, UK). Parent HEK 293 cells or HEK Kv1.3 cells were plated at 3×10e4 cells/well in poly-D-Lysine coated ninety-six well plates (#35-4461; Becton-Dickinson, Bedford, Mass.). Cells were fixed with formalin (Sigma HT50-1-1 Formalin solution, diluted 1:1 with PBS/0.5% BSA before use) by removing cell growth medium, adding 0.2 ml/well formalin solution and incubating at room temperature for 25 minutes and then washing one time with 100 μl/well of PBS/0.5% BSA. Wells were blocked by addition of 0.3 ml/well of BSA blocker (50-61-00; KPL 10% BSA Diluent/Blocking Solution, diluted 1:1 with PBS; KPL, Gaithersburg, Md.) followed by incubation at room temperature, with shaking, for 3 hr. Plates were washed 2 times with 1×KP Wash Buffer (50-63-00; KPL). […] Absorbance was read at 450 nm on a Molecular Devices SpectroMax 340 (Sunnyvale, Calif.).
FIG. 34B. […] Absorbances were read at 405 nm after stopping reactions by addition of 0.1 ml/well of 1% SDS.

[12] = biological target: HEK 293 cells overexpressing human Kv1.3 (Homo sapiens, UniProt P22001); assay: Immunohistochemistry binding to HEK 293 cells overexpressing human Kv1.3; details: 5 μg/ml
Description: Immunohistochemistry analysis of Fc-L10-ShK[1-35] binding to HEK 293 cells overexpressing human Kv1.3. HEK 293 cells overexpressing human Kv1.3 (HEK Kv1.3) were obtained from BioFocus plc (Cambridge, UK) and maintained per manufacturer's recommendation. The parental HEK 293 cell line was used as a control. Cells were plated on Poly-D-Lysine 24 well plates (#35-4414; Becton-Dickinson, Bedford, Mass.) and allowed to grow to approximately 70% confluence. HEK KV1.3 were plated at 0.5×10e5 cells/well in 1 ml/well of medium. HEK 293 cells were plated at a density of 1.5×10e5 cells/well in 1 ml/well of medium. Before staining, cells were fixed with formalin (Sigma HT50-1-1 Formalin solution, diluted 1:1 with PBS/0.5% BSA before use) by removing cell growth medium, adding 0.2 ml/well formalin solution and incubating at room temperature for ten minutes. Cells were stained by incubating with 0.2 ml/well of 5 μg/ml Fc-L10-ShK[1-35] in PBS/BSA for 30′ at room temperature. Fc-L10-ShK[1-35] was aspirated and then the cells were washed one time with PBS/0.5% BSA. Detection antibody (Goat F(ab)2 anti-human IgG-phycoerythrin; Southern Biotech Associates, Birmingham, Ala.) was added to the wells at 5 μg/ml in PBS/0.5% BSA and incubated for 30′ at room temperature. Wash cells once with PBS/0.5% BSA and examine using confocal microscopy (LSM 510 Meta Confocal Microscope; Carl Zeiss AG, Germany). […]

[13] = test system: T cell proliferation in human PBMCs; assay: T cell proliferation (3H-thymidine incorporation) in anti-CD3/anti-CD28 stimulated human PBMCs; format: cell-based; details: two normal donors
Description: Inhibition of T cell proliferation following anti-CD3 and anti-CD28 antibody stimulation of PBMCs. PBMC's were previously isolated from normal human donor Leukophoresis packs, purified by density gradient centrifugation (Ficoll Hypaque), cryopreserved in CPZ Cryopreservation Medium Complete (INCELL, MCPZF-100 plus 10% DMSO final). PBMC's were thawed (95% viability), washed, and seeded at 2×10^5 cells per well in culture medium (RPMI medium 1640; GIBCO) supplemented with 10% fetal calf serum, 100 U/ml penicillin, […] streptomycin, 2 mM L-glutamine, 100 μM non-essential amino acids, and 20 μM 2-ME) in 96-well flat-bottom tissue culture plates. Cells were pre-incubated with either anti-human CD32 (FcyRII) blocking antibody (per manufacturers instructions EASY SEP Human Biotin Selection Kit #18553, StemCell Technologies Vancouver, BC) or Fc-L10-ShK (100 nM-0.001 nM final) for 45 min. Fc-L10-ShK (100 nM-0.001 nM final) was then added to the cells containing anti-human CD32 blocking antibody while medium was added to the cells containing Fc-L10-ShK. Both sets were incubated for an additional 45 min before stimulating for 48 hr with aCD3/aCD28 (0.2 ng/ml and 100 ng/ml, respectively). Final assay volume was 200 ul. […] Cells were then harvested onto glass fiber filters and radioactivity was measured in a B-scintillation counter.

Sequence of human Kv1.3 channel (P22001 whole entry): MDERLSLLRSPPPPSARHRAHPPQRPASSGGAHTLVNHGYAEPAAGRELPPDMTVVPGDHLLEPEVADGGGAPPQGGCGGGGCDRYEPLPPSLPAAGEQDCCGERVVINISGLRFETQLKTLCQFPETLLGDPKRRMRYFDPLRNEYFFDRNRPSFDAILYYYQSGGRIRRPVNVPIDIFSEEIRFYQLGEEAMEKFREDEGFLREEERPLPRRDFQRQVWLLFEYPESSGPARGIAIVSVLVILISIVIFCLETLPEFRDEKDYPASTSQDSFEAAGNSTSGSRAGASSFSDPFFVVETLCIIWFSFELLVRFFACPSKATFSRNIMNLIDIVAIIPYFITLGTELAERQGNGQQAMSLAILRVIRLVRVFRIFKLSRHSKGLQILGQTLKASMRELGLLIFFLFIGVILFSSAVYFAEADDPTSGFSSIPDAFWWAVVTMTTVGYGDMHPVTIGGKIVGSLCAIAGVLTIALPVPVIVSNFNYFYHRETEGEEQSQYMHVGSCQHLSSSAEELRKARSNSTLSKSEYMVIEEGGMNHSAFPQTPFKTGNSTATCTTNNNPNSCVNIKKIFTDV
T1 sequence (Q09470 whole entry): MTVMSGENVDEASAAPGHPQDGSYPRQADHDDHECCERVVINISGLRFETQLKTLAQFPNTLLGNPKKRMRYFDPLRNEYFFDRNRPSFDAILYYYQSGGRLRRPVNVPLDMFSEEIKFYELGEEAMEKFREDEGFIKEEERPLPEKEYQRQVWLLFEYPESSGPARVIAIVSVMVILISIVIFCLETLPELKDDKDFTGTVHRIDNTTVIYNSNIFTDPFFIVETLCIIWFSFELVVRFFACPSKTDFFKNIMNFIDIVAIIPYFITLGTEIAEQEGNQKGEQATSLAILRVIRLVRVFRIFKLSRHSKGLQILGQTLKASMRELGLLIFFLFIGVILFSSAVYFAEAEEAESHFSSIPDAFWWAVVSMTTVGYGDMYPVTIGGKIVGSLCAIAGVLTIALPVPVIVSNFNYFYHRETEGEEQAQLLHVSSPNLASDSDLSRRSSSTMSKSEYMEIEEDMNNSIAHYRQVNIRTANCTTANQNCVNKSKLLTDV
Sequence of HEK 293 cells overexpressing human Kv1.3 (P22001 whole entry): as the sequence (P22001 whole entry) above
Sequence of fixed HEK 293 cells stably transfected with human Kv1.3 (P22001 whole entry): as above

Molecule | inhibition of IFNγ production (in words) [2] | inhibition of IL-2 production (in words) [3] | thapsigargin-induced IFN-g production in human whole blood (in words) [4] | inhibition of IFNg production (in words) [5] | thapsigargin-induced upregulation of CD40L on T cells (in words) [6] | inhibition of IL-2 production (in words) [7] | thapsigargin-induced upregulation of IL-2R on T cells (in words) [9] | block of human Kv1.3 current (in words) (human Kv1.3 channel) | further results
CC[C@H](C)[C@@H]1NC(=O)[C@@H](NC(=O)[C@H](CO)NC(=O)[C@@H](N)CCCNC(=N)N)CSSC[C@@H](C(=O)O)NC(=O)[C@H]([C@@H](C)O)NC(=O)CNC(=O)[C@@H]2CSSC[C@@H]3NC(=O)[C@H](CCC(N)=O)NC(=O)[C@H](Cc4ccccc4)NC(=O)[C@H](C)NC(=O)[C@H]([C@@H](C)O)NC(=O)[C@H](CSSC[C@H](NC(=O)[C@H](Cc4ccccc4)NC(=O)[C@H](CO)NC(=O)[C@H](CC(C)C)NC(=O)[C@H](CCCNC(=N)N)NC(=O)[C@H](Cc4ccc(O)cc4)NC(=O)[C@H](CCCCN)NC(=O)[C@H](CCSC)NC(=O)[C@H](CO)NC(=O)[C@H](Cc4cnc[nH]4)NC(=O)[C@H](CCCCN)NC3=O)C(=O)N[C@@H](CCCNC(=N)N)C(=O)N[C@@H](CCCCN)C(=O)N[C@@H]([C@@H](C)O)C(=O)N2)NC(=O)[C@H](CCCNC(=N)N)NC(=O)[C@H](CO)NC(=O)[C@H](CCCCN)NC(=O)[C@@H]2CCCN2C(=O)[C@H]([C@@H](C)CC)NC(=O)[C@H]([C@@H](C)O)NC(=O)[C@H](CC(=O)O)NC1=O [ShK, reference compound] | only a partial inhibition | only partial inhibition | suppressed | only partial inhibition | suppressed | only a partial inhibition | suppressed |  | average body weight lost [1]: 30 g; disease severity and survival (in words) [1]: developed severe disease and died; onset of disease [1]: 4 days; time of significant suppression of Kv1.3 current (<70 POC) by 5% serum Test solutions [8]: ≤ 1 h
Fc-L10-OSK1[E16K,K20D]: Fc-L10-OSK1 with E16K and K20D substitutions |  |  |  |  |  |  |  |  | difference in Kv1.3 potency compared to Fc-L10-OSK1 (human Kv1.3 channel): 1.3 fold; fold less potent than the synthetic OSK1 toxin peptide (Kv1.3) (human Kv1.3 channel): approximately 6 fold; blocking activity against Kv1.1 (in words) (human Kv1.1): removed the blocking activity against Kv1.1
IbTx: BKCa channel inhibitor iberiotoxin, purchased from Bachem (QFTDVDCSVSKECWSVCKDLFGVDRGKCMGKKCRCYQ; Definition of Artificial Sequence: Synthetic peptide) [reference compound] |  |  | no significant activity |  | no significant activity |  | no significant activity |  | thapsigargin-induced IL-2 production in human whole blood (in words) [10]: no significant activity
Fc-L10-ShK[1-35]: Fc region of human IgG1 fused in-frame to L10 linker and a monomer of ShK[1-35] | complete inhibition of the response | nearly complete inhibition |  | nearly complete inhibition | suppressed | complete inhibition of the response | suppressed | potently blocked human Kv1.3 | binding to fixed cells that overexpress Kv1.3 (ELISA) [11]: dose-dependent increase in the peptibody binding to fixed cells that overexpress Kv1.3; binding to Kv1.3 overexpressing HEK 293 cells (staining) [12]: binds to Kv1.3 overexpressing HEK 293 cells but shows little binding to untransfected cells; inhibition of T cell proliferation (in words) [13]: potently inhibits proliferation of T cells in a dose-dependent manner
Fc-L10-ShK[2-35]: human IgG1 Fc fused via 10 amino acid linker to ShK[2-35] |  |  | suppressed; also recorded: blocked |  | blocked |  | blocked | potently blocks human Kv1.3 current | 
B1 |  |  |  |  |  |  |  |  | IC50 ([10]; read-out: WB/IL-2 (IC50)): 38.5 nM; IC50 ([4]; read-out: WB/IFNg (IC50)): 55.2 nM
